Data reported in ChEMBL document CHEMBL5233246, “CT1-3, a novel magnolol-sulforaphane hybrid suppresses tumorigenesis through inducing mitochondria-mediated apoptosis and inhibiting epithelial mesenchymal transition” (Eur J Med Chem, 2020).
pIC50: −log10 of the molar value. The source made the active and inactive calls. No cut-off for these calls is given here.

Assays:
[1] = system: LoVo; experiment: Induction of apoptosis in human LoVo cells assessed as late apoptotic cells at 10 uM incubated for 24 hrs by annexin V-FITC/propidium iodide staining based flow cytometry analysis (reference value: 0.4%); type: functional
[2] = system: NCI-H460; experiment: Induction of apoptosis in human NCI-H460 cells assessed as viable cells at 10 uM incubated for 24 hrs by annexin V-FITC/propidium iodide staining based flow cytometry analysis (reference value: 97.9%); type: functional; conditions: read-out: Activity
[3] = system: LoVo; experiment: Inhibition of cell migration in human LoVo cells assessed as upregulation of E-cadherin protein expression at 7.5 uM incubated for 24 hrs by western blot analysis; type: functional, cell-based
[4] = system: A549; experiment: Inhibition of cell migration in human A549 cells at 7.5 uM incubated for 24 hrs by crystal violet staining based transwell assay; type: functional
[5] = system: AGS; experiment: Antiproliferative activity against human AGS cells assessed as reduction in cell viability incubated for 24 hrs by CCK-8 assay; type: functional, cell-based
[6] = system: A549; experiment: Induction of apoptosis in human A549 cells assessed as reduction of mitochondrial membrane potential at 10 uM incubated for 8 hrs by JC-1 staining based fluorescence microscopic assay; type: functional, cell-based
[7] = system: NCI-H460; experiment: Induction of apoptosis in human NCI-H460 cells assessed as reduction of mitochondrial membrane potential at 10 uM incubated for 8 hrs by JC-1 staining based fluorescence microscopic assay; type: functional, cell-based
[8] = system: LoVo; experiment: Inhibition of cell migration in human LoVo cells at 7.5 uM incubated for 24 hrs by crystal violet staining based transwell assay; type: functional
[9] = system: NCI-H460; experiment: Inhibition of colony formation in human NCI-H460 cells incubated for 48 hrs by Giemsa staining based microscopy; type: functional, cell-based
[10] = system: NCI-H460; experiment: Inhibition of cell invasion in human NCI-H460 cells at 7.5 uM incubated for 24 hrs by matrigel based transwell assay; type: functional
[11] = system: LoVo; experiment: Antiproliferative activity against human LoVo cells assessed as reduction in cell viability incubated for 24 hrs by CCK-8 assay; type: functional, cell-based
[12] = system: LoVo; experiment: Induction of apoptosis in human LoVo cells assessed as increase in ROS level at 10 uM incubated for 8 hrs by H2DCFDA staining based fluorescence microscopic assay; type: functional, cell-based
[13] = system: LoVo; experiment: Induction of apoptosis in human LoVo cells assessed as necrotic cells at 10 uM incubated for 24 hrs by annexin V-FITC/propidium iodide staining based flow cytometry analysis (reference value: 0.3%); type: functional
[14] = system: LoVo; experiment: Inhibition of cell migration in human LoVo cells assessed as downregulation of Snail protein expression at 7.5 uM incubated for 24 hrs by western blot analysis; type: functional, cell-based
[15] = system: SW480; experiment: Antiproliferative activity against human SW480 cells assessed as reduction in cell viability incubated for 24 hrs by CCK-8 assay; type: functional, cell-based; conditions: SW480, 24 h
[16] = Toxicity in BALB/c mouse xenografted with human MDA-MB-231 cells assessed as liver pathological change at 20 mg/kg,ip measured after 28 days; type: organism-based; conditions: in vivo, 672 h, time 28 day
[17] = system: A549; experiment: Induction of apoptosis in human A549 cells assessed as late apoptotic cells at 10 uM incubated for 24 hrs by annexin V-FITC/propidium iodide staining based flow cytometry analysis (reference value: 0.8%); type: functional
[18] = system: HepG2; experiment: Antiproliferative activity against human HepG2 cells assessed as reduction in cell viability incubated for 24 hrs by CCK-8 assay; type: functional, cell-based; conditions: HepG2, 24 h
[19] = system: MDA-MB-231; experiment: Antiproliferative activity against human MDA-MB-231 cells assessed as reduction in cell viability incubated for 24 hrs by CCK-8 assay; type: functional, cell-based; conditions: MDA-MB-231, 24 h
[20] = system: NCI-H460; experiment: Induction of apoptosis in human NCI-H460 cells assessed as late apoptotic cells at 10 uM incubated for 24 hrs by annexin V-FITC/propidium iodide staining based flow cytometry analysis (reference value: 0.4%); type: functional
[21] = system: NCI-H460; experiment: Inhibition of cell migration in human NCI-H460 cells assessed as downregulation of Snail protein expression at 7.5 uM incubated for 24 hrs by western blot analysis; type: functional, cell-based
[22] = system: LoVo; experiment: Induction of apoptosis in human LoVo cells assessed as reduction of mitochondrial membrane potential at 10 uM incubated for 8 hrs by JC-1 staining based fluorescence microscopic assay; type: functional, cell-based
[23] = system: LoVo; experiment: Induction of apoptosis in human LoVo cells assessed as early apoptotic cells at 10 uM incubated for 24 hrs by annexin V-FITC/propidium iodide staining based flow cytometry analysis (reference value: 1.3%); type: functional
[24] = system: NCI-H460; experiment: Cytotoxicity against human NCI-H460 cells assessed as reduction in cell viability at 10 uM incubated for 8 hr by CCK-8 assay; type: functional, cell-based
[25] = system: AGS; experiment: Inhibition of colony formation in human AGS cells incubated for 48 hrs by Giemsa staining based microscopy; type: functional, cell-based
[26] = system: OVCAR-3; experiment: Inhibition of colony formation in human OVCAR-3 cells incubated for 48 hrs by Giemsa staining based microscopy; type: functional, cell-based
[27] = system: LoVo; experiment: Induction of apoptosis in human LoVo cells assessed as decrease in Bcl-2 protein expression level at 7.5 uM incubated for 24 hrs by western blot assay; type: functional, cell-based
[28] = system: NCI-H1650; experiment: Antiproliferative activity against human NCI-H1650 cells assessed as reduction in cell viability incubated for 24 hrs by CCK-8 assay; type: functional, cell-based; conditions: NCI-H1650, 24 h
[29] = system: LoVo; experiment: Induction of apoptosis in human LoVo cells assessed as decrease in XIAP protein expression level at 7.5 uM incubated for 24 hrs by western blot assay; type: functional, cell-based
[30] = system: A549; experiment: Induction of apoptosis in human A549 cells assessed as necrotic cells at 10 uM incubated for 24 hrs by annexin V-FITC/propidium iodide staining based flow cytometry analysis (reference value: 0.4%); type: functional
[31] = system: NCI-H1299; experiment: Antiproliferative activity against human NCI-H1299 cells assessed as reduction in cell viability incubated for 24 hrs by CCK-8 assay; type: functional, cell-based; conditions: NCI-H1299, 24 h
[32] = system: NCI-H460; experiment: Inhibition of cell migration in human NCI-H460 cells at 7.5 uM incubated for 24 hrs by crystal violet staining based transwell assay; type: functional
[33] = system: LoVo; experiment: Inhibition of cell invasion in human LoVo cells at 7.5 uM incubated for 24 hrs by matrigel based transwell assay; type: functional
[34] = Antiproliferative activity against human […] cells assessed as reduction in cell viability incubated for 24 hrs by CCK-8 assay; type: functional, cell-based
[35] = system: MCF7; experiment: Antiproliferative activity against human MCF7 cells assessed as reduction in cell viability incubated for 24 hrs by CCK-8 assay; type: functional, cell-based; conditions: MCF7, 24 h
[36] = system: NCI-H460; experiment: Induction of apoptosis in human NCI-H460 cells assessed as increase in ROS level at 10 uM incubated for 8 hrs by H2DCFDA staining based fluorescence microscopic assay; type: functional, cell-based
[37] = system: MDA-MB-231; experiment: Antitumor activity against human MDA-MB-231 cells xenografted in BALB/c mouse assessed as reduction in tumor growth at 20 mg/kg,ip measured after 28 days; type: functional, organism-based; conditions: time 28.0 day
[38] = system: MDA-MB-231; experiment: Antitumor activity against human MDA-MB-231 cells xenografted in BALB/c mouse assessed as tumor necrosis at 20 mg/kg,ip measured after 28 days; type: functional, organism-based; conditions: time 28.0 day
[39] = system: A549; experiment: Antitumor activity against human A549 cells xenografted in BALB/c mouse assessed as reduction in tumor growth at 20 mg/kg,ip measured after 28 days; type: functional, organism-based; conditions: time 28.0 day

**Q.** With `C=CCc1ccc(O)c(-c2cc(CC=C)ccc2OCC[S+]([O-])CCCCN=C=S)c1` (centres undefined) as the molecule, how does the Activity [1] read?
**A.** The Activity was 23.3%.

**Q.** And the viability at 10 µM [2]?
**A.** The viability at 10 µM was 15.3%.

**Q.** And the inhibition [3]?
**A.** Its inhibition is “Active”.

**Q.** What about the inhibition [4] of the same molecule?
**A.** The inhibition was “Active”.

**Q.** And the pIC50 [5]?
**A.** The pIC50 was 5.10.

**Q.** And the Activity [6]?
**A.** Its Activity is “Active”.

**Q.** What about the Activity [7] of the same molecule?
**A.** Its Activity is “Active”.

**Q.** And the inhibition [8]?
**A.** Its inhibition is “Active”.

**Q.** And the inhibition [9]?
**A.** Its inhibition is “Active”.

**Q.** What about the inhibition [10] of the same molecule?
**A.** Its inhibition is “Active”.

**Q.** What about the pIC50 [11] of the same molecule?
**A.** Its pIC50 is 5.29.

**Q.** What about the Activity [12] of the same molecule?
**A.** The Activity was “Active”.

**Q.** And the Activity [13]?
**A.** The Activity was 38%.

**Q.** And the inhibition [14]?
**A.** Its inhibition is “Active”.

**Q.** And the pIC50 [15]?
**A.** The pIC50 was 5.22.

**Q.** What about the Activity [16] of the same molecule?
**A.** The Activity was “Non-Toxic”.

**Q.** And the Activity [17]?
**A.** Its Activity is 25.7%.

**Q.** What about the pIC50 [18] of the same molecule?
**A.** The pIC50 was 5.20.

**Q.** What about the pIC50 [19] of the same molecule?
**A.** Its pIC50 is 5.13.

**Q.** What about the Activity [20] of the same molecule?
**A.** Its Activity is 72.9%.

**Q.** What about the inhibition [21] of the same molecule?
**A.** The inhibition was “Active”.

**Q.** What about the Activity [22] of the same molecule?
**A.** Its Activity is “Active”.

**Q.** And the Activity [23]?
**A.** The Activity was 16.7%.

**Q.** And the Activity [24]?
**A.** Its Activity is “Active”.

**Q.** What about the inhibition [25] of the same molecule?
**A.** Its inhibition is “Active”.

**Q.** And the inhibition [26]?
**A.** The inhibition was “Active”.

**Q.** What about the Activity [27] of the same molecule?
**A.** The Activity was “Active”.

**Q.** And the pIC50 [28]?
**A.** Its pIC50 is 5.16.

**Q.** What about the Activity [29] of the same molecule?
**A.** The Activity was “Active”.

**Q.** And the Activity [30]?
**A.** The Activity was 10.3%.

**Q.** What about the pIC50 [31] of the same molecule?
**A.** The pIC50 was 5.04.

**Q.** What about the inhibition [32] of the same molecule?
**A.** Its inhibition is “Active”.

**Q.** What about the inhibition [33] of the same molecule?
**A.** The inhibition was “Active”.

**Q.** And the pIC50 [34]?
**A.** The pIC50 was 5.02.

**Q.** And the pIC50 [35]?
**A.** The pIC50 was 4.90.

**Q.** And the Activity [36]?
**A.** The Activity was “Active”.

**Q.** And the Activity [37]?
**A.** Its Activity is “Active”.

**Q.** What about the Activity [38] of the same molecule?
**A.** The Activity was “Active”.

**Q.** What about the Activity [39] of the same molecule?
**A.** Its Activity is “Active”.
